# Test system: NCI-H2228 cell line
# Experiment: CellTiter-Glo cell proliferation inhibition on NCI-H2228 cell line
# Type: cell-based
# Details: Homo sapiens, 96 h, NCI-H2228 cells, 5000 cells/well, 4 days drug treatment
# Method: 3. Cell Proliferation Inhibitory Activities of the Compounds of the Present Invention on NCI-H2228 Cell Line
# ? experimental method ? CellTiter-Glo® Luminescent Cell Viability Assay kit from Promega company was used to detect cell proliferation inhibitory activities of the compounds on NCI-H2228 cell line.
# ? instrument ? Envision 2104 plate reader from PerKinElmer company; Vi-Cell XR cell counter from Beckman Counter company; MCO-18AIC CO2 incubator from SANYO company.
# ? experiment material ? CellTiter-Glo® Luminescent Cell Viability Assay Kit (Promega company, catalog No. G7573); NCI-H2228 cell line (ATCC, catalog No. CRL-5935); RPMI-1640 medium (HyClone company, catalog No. SH30809.01B); fetal bovine serum (FBS) (Gibco company, catalog No. 10099-141); trypsin (Trypsin) (Gibco company, catalog No. 25200-072); PBS (HyClone company, catalog No. SH30256.01B); 96 wells cell culture plate (Corning company, catalog No. 3610); DMSO (AMRESCO company, catalog No. 0231); 96 wells plates (for diluting compounds) (CITOTEST company, catalog No. Ref36020096D);
# ? experimental condition ? NCI-H2228 cells in exponential growth phase were collected and treated with trypsin (Trypsin), and viable cells were counted by Vi-Cell XR cell counter. Cell suspension was adjusted to 62500 cells/ml with culture medium (RPMI-1640+10% FBS). 80 μl cell suspension was added into each well of 96 wells cell culture plate so that the final cell number of NCI-H2228 cells was 5000 cells/well. The cells were cultivated in an incubator with an atmosphere of 37° C., 5% CO2 and 95% humidity for 2 hours and then each well was added with 20 μl compounds in RPMI-1640 medium solution (the final concentration of DMSO was 0.5%). 4 days after drug treatment, each well was added with 50 μl CellTiter-Glo solution which was previously thawed and equilibrated to room temperature, and mixed for 2 minutes with microplate shaker. After placing at room temperature for 10 minutes, luminescence value was measured by PerkinElmer Envision 2104 plate reader and the data was analyzed.
# ? tested samples ? Compounds of the examples.
# ? data analysis ? Luminescence value of DMSO solvent control (Vvehicle control, which is the mean luminescence value from DMSO solvent control group)
# Tested luminescence value (Vsample, which is the luminescence value from given concentration of compounds group) Inhibition rate (%)=(1−Vsample/Vvehicle control)×100
# ? data processing ? IC50 of compounds was calculated by using XLfit program in Excel.
row,Structure (SMILES),IC50 [nM]
1,"Cc1cc(Nc2ncc(Cl)c(Nc3cn(C)nc3S(=O)(=O)C(C)C)n2)c(OC2CC2)cc1C1CCN(C2CCN(C)CC2)CC1 [Final product 158, 5-chloro-N^2-(2-cyclopropoxy-5-methyl-4-(1-(1-methyl-piperidin-4-yl)piperidin-4-yl)phenyl)-N^4-(3-(isopropylsulfonyl)-1-methyl-1H-pyrazol-4-yl)pyrimidin-2,4-diamine]",170

# Same assay, conditions: Homo sapiens, NCI-H2228, 96 h, NCI-H2228 cells, 5000 cells/well, 4 days drug treatment
row,Structure (SMILES),IC50 [nM]
1,Cc1cc(Nc2ncc(Cl)c(Nc3cn(C)nc3S(=O)(=O)C(C)C)n2)c(OC(C)C)cc1C1CCCN(C)C1 (stereo not shown) [Final product 62],122
2,Cc1cc(Nc2ncc(Cl)c(Nc3cn(C)nc3S(=O)(=O)C(C)C)n2)c(OC(C)C)cc1C1CCN(C)C(C)C1 (stereo not shown) [Final product 94],79
3,Cc1cc(Nc2ncc(Cl)c(Nc3cn(C)nc3S(=O)(=O)C3CCC3)n2)c(OC(C)C)cc1C1CCN(C)CC1 [Final product 86],120
4,Cc1cc(Nc2ncc(Cl)c(Nc3cn(C)nc3S(=O)(=O)C(C)C)n2)c(OC2CC2)cc1OC1CN(C)C1 [Final product 76],215
5,COCC(C)(C)N1CCC(c2cc(OC3CC3)c(Nc3ncc(Cl)c(Nc4cn(C)nc4S(=O)(=O)C(C)C)n3)cc2C)CC1 [Final product 84],46
6,COCC1CC(c2cc(OC(C)C)c(Nc3ncc(Cl)c(Nc4cn(C)nc4S(=O)(=O)C(C)C)n3)cc2C)CCN1C (stereo not shown) [Final product 78],128
7,Cc1cc(Nc2ncc(Cl)c(Nc3cn(C)nc3S(=O)(=O)CC(C)C)n2)c(OC2CC2)cc1C1CCN(C)CC1C (stereo not shown) [Final product 91],75
8,Cc1cc(Nc2ncc(Cl)c(Nc3cn(C)nc3S(=O)(=O)C(C)C)n2)c(OC2CCC2)cc1C1CCN(C)CC1 [Final product 63],31
9,Cc1cc(Nc2ncc(Cl)c(Nc3cn(C)nc3S(=O)(=O)C(C)C)n2)c(OC2CC2)cc1C1CCN(C)CC1(C)C (stereo not shown) [Final product 99],58
10,CCOc1cc(C2CCN(C)CC2)c(C)cc1Nc1ncc(Cl)c(Nc2cn(C)nc2S(=O)(=O)C(C)C)n1 [Final product 65],38
11,Cc1cc(Nc2ncc(Cl)c(Nc3cn(C)nc3S(=O)(=O)C(C)C)n2)c(OC2CC2)cc1C1CCCCN1C (stereo not shown) [Final product 102],103
12,Cc1cc(Nc2ncc(Cl)c(Nc3cn(C)nc3S(=O)(=O)C(C)C)n2)c(OC2CC2)cc1C1CC2COCC(C1)N2 (stereo not shown) [Final product 108],33
13,Cc1cc(Nc2ncc(Cl)c(Nc3cn(C)nc3S(=O)(=O)C(C)C)n2)c(OC2CC2)cc1CN1CCN(C)CC1 [Final product 75],109
14,Cc1cc(Nc2ncc(Cl)c(Nc3cn(C)nc3S(=O)(=O)CC(C)C)n2)c(OC2CC2)cc1C1CCN(C)C(C)C1 (stereo not shown) [Final product 93],67
15,Cc1cc(Nc2ncc(Cl)c(Nc3cn(C)nc3S(=O)(=O)CC(C)C)n2)c(OC2CC2)cc1C1CC(C)N(C)C(C)C1 (stereo not shown) [Final product 96],85
16,Cc1cc(Nc2ncc(Cl)c(Nc3cn(C)nc3S(=O)(=O)CC(C)C)n2)c(OC2CC2)cc1C1CCN(C)C(=O)C1 (stereo not shown) [Final product 104],70
17,Cc1cc(Nc2ncc(Cl)c(Nc3cn(C)nc3S(=O)(=O)C(C)C)n2)c(OC2CC2)cc1C1CC2CN(C)CC(C1)O2 (stereo not shown) [Final product 109],109
18,Cc1cc(Nc2ncc(C)c(Nc3cn(C)nc3S(=O)(=O)C(C)C)n2)c(OC(C)C)cc1C1CCN(C)CC1 [Final product 73],151
19,Cc1cc(Nc2ncc(Cl)c(Nc3cn(C)nc3S(=O)(=O)CC(C)C)n2)c(OC2CC2)cc1C1CCCN(C)C1 (stereo not shown) [Final product 61],85
20,CCCOc1cc(C2CCN(C)CC2)c(C)cc1Nc1ncc(Cl)c(Nc2cn(C)nc2S(=O)(=O)C(C)C)n1 [Final product 66],59

# More lines, now with the values ahead:
row,IC50 [nM],Structure (SMILES)
1,158,CCN1CCC(c2cc(OC3CC3)c(Nc3ncc(Cl)c(Nc4cn(C)nc4S(=O)(=O)CC(C)C)n3)cc2C)CC1 [Final product 117]
2,91,"Cc1cc(Nc2ncc(Cl)c(Nc3cn(C)nc3S(=O)(=O)CC(C)C)n2)c(OC2CC2)cc1[C@H]1CC[C@H](N(C)C)CC1 [Final product 176, 5-chloro-N^2-(2-cyclopropoxy4-(4-(dimethylamino)cyclohexyl)-5-methylphenyl)-N^4-(3-(isobutylsulfonyl)-1-methyl-1H-pyrazol-4-yl) pyrimidin-2,4-diamine]"
3,225,Cc1cc(Nc2ncc(Cl)c(Nc3cn(C)nc3S(=O)(=O)C(C)C)n2)c(OC2CC2)cc1[C@H]1CC[C@@H](NCCN(C)C)CC1 [Final product 199]
4,34,CCOc1cc(C2CCN(CC)CC2)c(C)cc1Nc1ncc(Cl)c(Nc2cn(C)nc2S(=O)(=O)C(C)C)n1 [Final product 116]
5,75,"Cc1cc(Nc2ncc(Cl)c(Nc3cn(C)nc3S(=O)(=O)C(C)C)n2)c(OC2CC2)cc1C1CCN(CC(=O)N(C)C)CC1 [Final product 155, 2-(4-(4-(5-chloro-4-(3-(isopropoxysulfonyl)-1-methyl-1H-pyrazol-4-yl-amino)pyrimidin-2-yl-amine)-5-cyclopropoxy-2-methylphenyl)piperidin-1-yl)-N,N-dimethylacetamide]"
6,193,CCN1CCCC(c2cc(OC(C)C)c(Nc3ncc(Cl)c(Nc4cn(C)nc4S(=O)(=O)C(C)C)n3)cc2C)C1 (stereo not shown) [Final product 119]
7,128,Cc1cc(Nc2ncc(Cl)c(Nc3cn(C)nc3S(=O)(=O)C(C)C)n2)c(OC2CCC2)cc1C1CCCN(C(C)(C)CO)C1 (stereo not shown) [Final product 154]
8,253,Cc1cc(Nc2ncc(Cl)c(Nc3cn(C)nc3S(=O)(=O)C(C)C)n2)c(OC(C)C)cc1[C@H]1CC[C@H](NC2CC2)CC1 [Final product 186]
9,52,Cc1cc(Nc2ncc(Cl)c(Nc3cn(C)nc3S(=O)(=O)C(C)C)n2)c(OC2CCC2)cc1C1CCN(C(C)C)CC1 [Final product 131]
10,28,Cc1cc(Nc2ncc(Cl)c(Nc3cn(C)nc3S(=O)(=O)CC(C)C)n2)c(OC2CC2)cc1C1CCCN(C(C)C)C1 (stereo not shown) [Final product 130]
11,32,Cc1cc(Nc2ncc(Cl)c(Nc3cn(C)nc3S(=O)(=O)C(C)C)n2)c(OC2CC2)cc1C1CCCN(C(C)C)C1 (stereo not shown) [Final product 129]
12,256,"Cc1cc(Nc2ncc(Cl)c(Nc3cn(C)nc3S(=O)(=O)CC(C)C)n2)c(OC2CC2)cc1[C@H]1CC[C@@H](N(C)C)CC1 [Final product 175, 5-chloro-N^2-(2-cyclopropoxy4-(4-(dimethylamino)cyclohexyl)-5-methylphenyl)-N^4-(3-(isobutylsulfonyl)-1-methyl-1H-pyrazol-4-yl) pyrimidin-2,4-diamine]"
13,154,"Cc1cc(Nc2ncc(Cl)c(Nc3cn(C)nc3S(=O)(=O)C(C)C)n2)c(OC2CC2)cc1[C@H]1CC[C@H](NC(=O)C2CC2)CC1 [Final product 207, N-(4-(4-(5-chloro-4-(3-(isopropylsulfonyl)-1-methyl-1H-pyrazol-4-amine)pyrimidin-2-amine)-5-cyclopropoxy-2-methylphenyl)cyclohexyl) cyclopropyl carboxamide]"
14,172,Cc1cc(Nc2ncc(Cl)c(Nc3cn(C)nc3S(=O)(=O)C(C)C)n2)c(OC(C)C)cc1C1CCC(N(C)C)CC1 (stereo not shown) [Final product 183]
15,97,Cc1cc(Nc2ncc(Cl)c(Nc3cn(C)nc3S(=O)(=O)C(C)C)n2)c(OC2CC2)cc1C1CCS(=O)(=O)CC1 [Final product 110]
16,93,CCN1CCCC(c2cc(OC3CC3)c(Nc3ncc(Cl)c(Nc4cn(C)nc4S(=O)(=O)C(C)C)n3)cc2C)C1 (stereo not shown) [Final product 120]
17,168,CCN1CCCC(c2cc(OC3CC3)c(Nc3ncc(Cl)c(Nc4cn(C)nc4S(=O)(=O)CC(C)C)n3)cc2C)C1 (stereo not shown) [Final product 121]
18,134,Cc1cc(Nc2ncc(Cl)c(Nc3cn(C)nc3S(=O)(=O)C(C)C)n2)c(OC(C)C)cc1C1CN(CCO)C1 [Final product 134]
19,210,Cc1cc(Nc2ncc(Cl)c(Nc3cn(C)nc3S(=O)(=O)C(C)C)n2)c(OC2CC2)cc1[C@H]1CC[C@H](NCCN(C)C)CC1 [Final product 200]
20,116,Cc1cc(Nc2ncc(Cl)c(Nc3cn(C)nc3S(=O)(=O)C(C)C)n2)c(OC2CC2)cc1[C@H]1CC[C@@H](N(C)C(C)C)CC1 [Final product 193]
21,70,CCOc1cc(C2CCCN(C(C)(C)CO)C2)c(C)cc1Nc1ncc(Cl)c(Nc2cn(C)nc2S(=O)(=O)C(C)C)n1 (stereo not shown) [Final product 151]
22,90,Cc1cc(Nc2ncc(Cl)c(Nc3cn(C)nc3S(=O)(=O)C(C)C)n2)c(OC2CC2)cc1C1CCCN(CCO)C1 (stereo not shown) [Final product 139]

# Source: patent US10023593B2, “ALK kinase inhibitor, and preparation method and uses thereof” (BEIJING PEARL BIOTECHNOLOGY LIMITED LIABILITY COMPANY, priority 2014, dated 2018)
